According to DBAASP:
Values after ≈ are worked out from the molar mass of the structure shown.

Tests used:
Assay in all cases: ≥ marks a high value that may be exact or a test limit, other limits are often not marked, values filed in µg/mL are converted to µM
[1] = system: Pseudomonas aeruginosa PAO1
Escherichia coli BL21 = system: Escherichia coli BL21
[2] = system: Streptococcus pyogenes M1T1 5448
Botrytis cinerea = system: Botrytis cinerea
[3] = system: Escherichia coli ATCC 11775
[4] = system: Candida albicans ATCC 10231
[5] = system: Staphylococcus aureus ATCC 12600
Escherichia coli JW0013 = system: Escherichia coli JW0013
[6] = system: Staphylococcus aureus USA 100
[7] = system: Staphylococcus epidermidis KCTC 1917
[8] = system: Pseudomonas aeruginosa KCTC 1637
[9] = system: Salmonella typhimurium KCTC 1926
[10] = system: Escherichia coli KCTC 1682
[11] = system: Staphylococcus aureus CCARM 3089
[12] = system: Bacillus subtilis KCTC 3068
[13] = system: Staphylococcus aureus KCTC 1621
Klebsiella pneumoniae = system: Klebsiella pneumoniae
[14] = system: Escherichia coli ATCC 8739
[15] = system: Staphylococcus aureus ATCC 25923
Escherichia coli = system: Escherichia coli
[16] = system: Escherichia coli ATCC 25922
[17] = system: Staphylococcus epidermidis
Proteus vulgaris = system: Proteus vulgaris
Salmonella typhimurium = system: Salmonella typhimurium
Bacillus subtilis = system: Bacillus subtilis
Pseudomonas aeruginosa = system: Pseudomonas aeruginosa
Streptococcus pyogenes = system: Streptococcus pyogenes
[18] = system: Pectobacterium carotovorum
Enterococcus faecium = system: Enterococcus faecium
Staphylococcus aureus = system: Staphylococcus aureus
[19] = system: Staphylococcus aureus USA 300
[20] = system: Pseudomonas aeruginosa ATCC 9027
[21] = system: Candida albicans ATCC 90028

**Q.** With `CC[C@H](C)[C@H](NC(=O)[C@H](CCCCN)NC(=O)[C@H](CCCCN)NC(=O)[C@H](CCCCN)NC(=O)[C@H](CC(C)C)NC(=O)[C@H](Cc1ccccc1)NC(=O)[C@H](CCC(N)=O)NC(=O)[C@H](CCCN=C(N)N)NC(=O)[C@@H](NC(=O)[C@@H](NC(=O)[C@H](CCC(=O)O)NC(=O)[C@H](CCCCN)NC(=O)CNC(=O)[C@H](C)N)[C@@H](C)O)[C@@H](C)CC)C(=O)N[C@@H](CCC(N)=O)C(=O)N[C@@H](CCC(=O)O)C(=O)N[C@@H](CCCCN)C(=O)NCC(=O)N[C@@H](CCCCN)C(=O)N[C@@H](CCCN=C(N)N)C(=O)N[C@@H](C)C(=O)N[C@H](C(=O)N[C@H](C(=O)N[C@@H](C)C(=O)N[C@@H](Cc1c[nH]c2ccccc12)C(=O)O)[C@@H](C)CC)[C@@H](C)O` [AGKETIRQFLKKKIQEKGKRATIAW] as the compound, how does the MIC [1] read?
**A.** Its MIC is over 128 µM.

**Q.** What about the MIC (Escherichia coli BL21) of the same compound?
**A.** The MIC was at least 32 µM.

**Q.** What about the MIC [2] of the same compound?
**A.** The MIC was 8 µM (≈ 23.4 µg/mL).

**Q.** What does the source list for `CC(C)C[C@H](NC(=O)[C@H](C)NC(=O)[C@H](CO)NC(=O)[C@H](C)NC(=O)[C@@H](NC(=O)[C@H](CCCCN)NC(=O)[C@H](CCCCN)NC(=O)[C@@H](NC(=O)[C@H](CC(C)C)NC(=O)CNC(=O)[C@H](CC(C)C)NC(=O)[C@H](CC(C)C)NC(=O)[C@H](CC(=O)O)NC(=O)[C@@H](N)Cc1ccccc1)C(C)C)C(C)C)C(N)=O` [FDLLGLVKKVASAL]?
**A.** MIC (Botrytis cinerea): 5 µM (≈ 7.36 µg/mL); MIC [3]: ≥ 100 µM; MIC [4]: 100 µM (≈ 147 µg/mL); MIC [5]: ≥ 50 µM

**Q.** `CC(C)C[C@H](NC(=O)[C@H](CCCN=C(N)N)NC(=O)[C@@H]1CCCN1C(=O)[C@H](Cc1cnc[nH]1)NC(=O)[C@@H]1CCCN1C(=O)[C@@H]1CCCN1C(=O)[C@H](CCCN=C(N)N)NC(=O)[C@@H]1CCCN1C(=O)[C@H](CCC(N)=O)NC(=O)[C@@H]1CCCN1C(=O)[C@H](CCCN=C(N)N)NC(=O)[C@H](Cc1ccc(O)cc1)NC(=O)[C@@H](NC(=O)[C@@H]1CCCN1C(=O)[C@H](CCCN=C(N)N)NC(=O)[C@H](CC(N)=O)NC(=O)[C@H](CC(N)=O)NC(=O)CN)C(C)C)C(=O)O` [GNNRPVYRPQPRPPHPRL] was tested. Which MIC (Escherichia coli JW0013) did it give?
**A.** Its MIC is 0.3 µM (≈ 0.645 µg/mL).

**Q.** With `CC[C@H](C)[C@H](N)C(=O)N[C@@H](CCCN=C(N)N)C(=O)N[C@H](C(=O)N[C@@H](CCCN=C(N)N)C(N)=O)[C@@H](C)CC` [IRIR] as the compound, how does the MIC [6] read?
**A.** Its MIC is at least 100 µM.

**Q.** For `CC[C@H](C)[C@H](NC(=O)[C@H](C)NC(=O)[C@H](CO)NC(=O)[C@@H](NC(=O)[C@@H](NC(=O)[C@@H](NC(=O)[C@H](Cc1cnc[nH]1)NC(=O)[C@H](CC(C)C)NC(=O)[C@H](CC(=O)O)NC(=O)[C@@H](N)CCCCN)[C@@H](C)O)C(C)C)C(C)C)C(=O)N[C@@H](CC(C)C)C(=O)N[C@@H](CCC(N)=O)C(=O)N[C@@H](C)C(=O)N[C@@H](CC(C)C)C(N)=O` [KDLHTVVSAILQAL], which MIC (Botrytis cinerea) is on record?
**A.** The MIC was 5.31 µM (≈ 7.99 µg/mL).

**Q.** And the MIC [3]?
**A.** Its MIC is at least 66.3 µM.

**Q.** And the MIC [4]?
**A.** The MIC was 33.2 µM (≈ 50 µg/mL).

**Q.** And the MIC [5]?
**A.** Its MIC is at least 66.3 µM.

**Q.** Which results are given for `CC[C@H](C)[C@H](NC(=O)[C@H](CCCN=C(N)N)NC(=O)[C@H](CCCCN)NC(=O)[C@@H](NC(=O)[C@@H](NC(=O)[C@H](CCCN=C(N)N)NC(=O)[C@@H](N)CCCCN)[C@@H](C)CC)C(C)C)C(=O)N[C@@H](CCCCN)C(=O)N[C@@H](CCCCN)C(=O)N[C@@H](Cc1c[nH]c2ccccc12)C(=O)N[C@@H](CC(C)C)C(=O)N[C@@H](CCCN=C(N)N)C(N)=O` [KRIVKRIKKWLR]?
**A.** MIC [7]: 1 µM (≈ 1.62 µg/mL); MIC [8]: 8 µM (≈ 13 µg/mL); MIC [9]: 2 µM (≈ 3.25 µg/mL); MIC [10]: 2 µM (≈ 3.25 µg/mL); MIC [11]: 4 µM (≈ 6.49 µg/mL); MIC [12]: 2 µM (≈ 3.25 µg/mL); MIC [13]: 2 µM (≈ 3.25 µg/mL)

**Q.** `CC[C@H](C)[C@H](NC(=O)[C@H](CCCN=C(N)N)NC(=O)[C@H](C)NC(=O)[C@H](C)NC(=O)[C@H](CC(C)C)NC(=O)[C@H](CCCCN)NC(=O)[C@H](CCCCN)NC(=O)[C@H](CCCCN)NC(=O)[C@H](CCSC)NC(=O)[C@@H]1CCCN1)C(=O)N[C@@H](CC(C)C)C(=O)N[C@@H](C)C(=O)N[C@@H](CCCCN)C(=O)N[C@H](C(=O)N[C@H](C(=O)N[C@@H](C)C(=O)N1CCC[C@H]1C(=O)N[C@H](C(=O)N[C@@H](Cc1c[nH]c2ccccc12)C(=O)O)C(C)C)C(C)C)[C@@H](C)CC` [PMKKKLAARILAKIVAPVW] was tested. Which MIC (Klebsiella pneumoniae) did it give?
**A.** The MIC was 60.9 µM (≈ 130 µg/mL).

**Q.** And the MIC [14]?
**A.** Its MIC is 7.5 µM (≈ 16 µg/mL).

**Q.** And the MIC [15]?
**A.** The MIC was over 120 µM.

**Q.** And the MIC (Escherichia coli)?
**A.** The MIC was 30 µM (≈ 64 µg/mL).

**Q.** What about the MIC [16] of the same compound?
**A.** The MIC was 11.7 µM (≈ 25 µg/mL).

**Q.** How did the MIC [17] turn out when `CC(C)C[C@H](NC(=O)[C@H](CCCN=C(N)N)NC(=O)[C@@H]1CCCN1C(=O)[C@H](Cc1cnc[nH]1)NC(=O)[C@@H]1CCCN1C(=O)[C@@H]1CCCN1C(=O)[C@H](CCCN=C(N)N)NC(=O)[C@@H]1CCCN1C(=O)[C@H](CCC(N)=O)NC(=O)[C@@H]1CCCN1)C(=O)O` [PQPRPPHPRL] was run?
**A.** Its MIC is at least 64 µM.

**Q.** And the MIC (Proteus vulgaris)?
**A.** Its MIC is at least 64 µM.

**Q.** What about the MIC (Salmonella typhimurium) of the same compound?
**A.** The MIC was 16 µM (≈ 19.1 µg/mL).

**Q.** And the MIC (Bacillus subtilis)?
**A.** Its MIC is at least 64 µM.

**Q.** And the MIC (Pseudomonas aeruginosa)?
**A.** Its MIC is 64 µM (≈ 76.4 µg/mL).

**Q.** What about the MIC (Escherichia coli) of the same compound?
**A.** Its MIC is 64 µM (≈ 76.4 µg/mL).

**Q.** And the MIC (Streptococcus pyogenes)?
**A.** Its MIC is at least 64 µM.

**Q.** Which MIC [18] does the source give for `CC(C)C[C@H](NC(=O)[C@H](Cc1ccccc1)NC(=O)CNC(=O)[C@H](C)NC(=O)[C@H](Cc1ccccc1)NC(=O)[C@@H](NC(=O)[C@H](CCCN=C(N)N)NC(=O)[C@H](CC(=O)O)NC(=O)[C@H](CCCCN)NC(=O)[C@H](CCC(=O)O)NC(=O)[C@@H](N)CCC(N)=O)[C@@H](C)O)C(=O)N[C@@H](CC(C)C)C(=O)N[C@@H](CCCCN)C(=O)NCC(=O)N[C@@H](Cc1ccccc1)C(=O)NCC(=O)N[C@H](C(=O)N[C@@H](CO)C(=O)N[C@@H](C)C(=O)N[C@@H](CO)C(=O)O)[C@@H](C)O` [QEKDRTFAGFLLKGFGTSAS] here?
**A.** The MIC was 1.34 µM.

**Q.** With `NC(N)=NCCC[C@H](NC(=O)[C@H](CCCN=C(N)N)NC(=O)[C@H](Cc1ccccc1)NC(=O)[C@@H]1CCCN1C(=O)[C@H](Cc1c[nH]c2ccccc12)NC(=O)[C@H](Cc1c[nH]c2ccccc12)NC(=O)[C@H](Cc1c[nH]c2ccccc12)NC(=O)[C@@H]1CCCN1C(=O)[C@H](Cc1ccccc1)NC(=O)[C@H](CCCN=C(N)N)NC(=O)[C@@H](N)CCCN=C(N)N)C(=O)O` [RRFPWWWPFRR] as the compound, how does the MIC [7] read?
**A.** The MIC was 1.18 µM (≈ 2 µg/mL).

**Q.** And the MIC [8]?
**A.** Its MIC is 9.47 µM (≈ 16 µg/mL).

**Q.** What about the MIC [9] of the same compound?
**A.** The MIC was 4.73 µM (≈ 8 µg/mL).

**Q.** And the MIC [10]?
**A.** Its MIC is 9.47 µM (≈ 16 µg/mL).

**Q.** What about the MIC [12] of the same compound?
**A.** The MIC was 2.37 µM (≈ 4 µg/mL).

**Q.** What about the MIC (Enterococcus faecium) of the same compound?
**A.** The MIC was 2.37 µM (≈ 4 µg/mL).

**Q.** And the MIC (Staphylococcus aureus)?
**A.** Its MIC is 3.35 µM (≈ 5.66 µg/mL).

**Q.** What about the MIC [13] of the same compound?
**A.** The MIC was 2.37 µM (≈ 4 µg/mL).

**Q.** With `CC[C@H](C)[C@H](NC(=O)[C@H](CCCN=C(N)N)NC(=O)[C@H](CCCN=C(N)N)NC(=O)[C@@H]1CCCN1C(=O)[C@@H]1CCCN1C(=O)[C@H](CCCN=C(N)N)NC(=O)[C@@H]1CCCN1C(=O)[C@H](CCCN=C(N)N)NC(=O)[C@@H]1CCCN1C(=O)[C@H](CC(C)C)NC(=O)[C@H](Cc1ccc(O)cc1)NC(=O)[C@@H]1CCCN1C(=O)[C@H](CCSC)NC(=O)[C@H](CCCCN)NC(=O)[C@H](CC(=O)O)NC(=O)[C@@H](N)C(C)C)C(=O)N[C@@H](Cc1ccc(O)cc1)C(=O)N[C@@H](CC(N)=O)C(=O)N[C@@H](CCCN=C(N)N)C(N)=O` [VDKMPYLPRPRPPRRIYNR] as the compound, how does the MIC (Escherichia coli JW0013) read?
**A.** The MIC was 1.28 µM (≈ 3.1 µg/mL).

**Q.** What does the source list for `NC(=O)C[C@H](NC(=O)[C@H](Cc1ccccc1)NC(=O)[C@@H](N)Cc1c[nH]c2ccccc12)C(=O)O` [WFN]?
**A.** MIC [19]: ≥ 100 µM; MIC [6]: ≥ 100 µM; MIC [20]: > 100 µM; MIC [21]: ≥ 100 µM
